Laboratory results: PubChem BioAssay AID743233 (The Scripps Research Institute Molecular Screening Center, 2013)
Activity calls are given as the source filed them. No rule for the calls is given here.

System: Galpha16-expressing cells, calcium fluorescence, counterscreen
Assay: Ga16 cell calcium inhibition, concentration series – fluorescence, dose response, counter-screen for TAAR1 agonist project, late-stage follow-up (AID 743233)

Compound: O=C(Nc1ccccc1)Nc1ccncc1
- IC50: > 29.9 µM (inactive)

Compound: Cc1ccc(NC(=O)CCN2CCc3ccccc3C2)cc1
- IC50: > 29.9 µM (inactive)

Compound: Nc1nc(Nc2ccccc2)nc2ccccc12
- IC50: > 29.9 µM (inactive)

Compound: CC1(C)CCCN(C(=O)c2coc(=O)c(Br)c2)C1
- IC50: > 29.9 µM (inactive)

Compound: O=c1[nH]cc(NCCc2ccccc2)c(=O)[nH]1
- IC50: > 29.9 µM (inactive)

Compound: c1ccc(CCN2CN(CCCN3CCOCC3)c3nc4ccccc4n3C2)cc1
- IC50: > 29.9 µM (inactive)

Compound: Cc1cc(N(C)C)nc(Nc2ccccc2)n1
- IC50: > 29.9 µM (inactive)

Compound: c1ccc(CCn2nnnc2C(c2cccs2)N2CCN(Cc3ccc4c(c3)OCO4)CC2)cc1 (stereo unspecified)
- IC50: > 29.9 µM (inactive)

Compound: O=C(CCN1CCc2ccccc2CC1)c1ccc2c(c1)OCCO2
- IC50: > 29.9 µM (inactive)

Compound: NCc1c(O)ccc2ccccc12
- IC50: > 29.9 µM (inactive)

Compound: Nc1nc(Nc2cccc(F)c2)nc2ccccc12
- IC50: > 29.9 µM (inactive)

Compound: CC(=C1C(=O)c2ccccc2C1=O)N1CCc2ccccc2C1
- IC50: > 29.9 µM (inactive)

Compound: O=C(CCN1CCC(c2ccccc2)C1)c1cccs1 (stereo unspecified)
- IC50: > 29.9 µM (inactive)

Compound: O=C(Nc1cccc2ccccc12)N1CCc2ccccc2C1
- IC50: > 29.9 µM (inactive)

Compound: O=C(CCCCl)N1CCc2[nH]c3ccccc3c2C1
- IC50: > 29.9 µM (inactive)

Compound: COc1cc(C(=O)CCN2CCC(c3ccccc3)C2)cc(OC)c1OC (stereo unspecified)
- IC50: > 29.9 µM (inactive)

Compound: O=C(CCN1CCC(c2ccccc2)C1)c1ccc2c(c1)OCCO2 (stereo unspecified)
- IC50: > 29.9 µM (inactive)

Compound: c1ccc2c3c([nH]c2c1)CCNC3
- IC50: > 29.9 µM (inactive)

Compound: O=C(C(=O)N1CCc2ccccc2C1)c1cn(CC(=O)N2CCCCC2)c2ccccc12
- IC50: > 29.9 µM (inactive)

Compound: CC(=NCCc1ccccc1)C1CCOC1=O (stereo unspecified)
- IC50: > 29.9 µM (inactive)

Compound: O=C(Nc1cccnc1)Nc1cccc(F)c1
- IC50: > 29.9 µM (inactive)

Compound: Cc1[nH]c2ccccc2c1CN1CCc2ccccc2C1
- IC50: > 29.9 µM (inactive)

Compound: OCCNc1nc(Nc2ccc(O)cc2)nc2ccccc12
- IC50: > 29.9 µM (inactive)

Compound: CCOC(=O)C(NC(=O)CC)(N1CCc2ccccc2C1)C(F)(F)F (stereo unspecified)
- IC50: > 29.9 µM (inactive)

Compound: NC(N)=NN=Cc1c(Cl)cccc1Cl
- IC50: > 29.9 µM (inactive)

Compound: NC(N)=Nc1cc2ccccc2c2ccccc12
- IC50: > 29.9 µM (inactive)

Compound: c1ccc2c(c1)CCN(c1nc3cc4c(cc3s1)OCO4)C2
- IC50: > 29.9 µM (inactive)

Compound: OCCNc1nc(Nc2cccc(O)c2)nc2ccccc12
- IC50: > 29.9 µM (inactive)

Compound: CCOC(=O)C(NC(C)=O)(N1CCc2ccccc2C1)C(F)(F)F (stereo unspecified)
- IC50: > 29.9 µM (inactive)

Compound: Cc1cc(C)n(C(CC(=O)N2CCc3ccccc3C2)C(=O)O)n1 (stereo unspecified)
- IC50: > 29.9 µM (inactive)

Compound: O=C(Nc1ccncc1)Nc1ccc(F)cc1
- IC50: > 29.9 µM (inactive)
